Patent publication US6806230B1, “Pyrimidine derivatives and herbicides containing them” (Kumiai Chemical Industry Co., Ltd., priority 1999, dated 2004)

Legend:
Format in all cases: in vivo
[1] = system: barnyard grass (Ec); assay: Test Example 2: herbicidal effects by upland soil treatment; set-up: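 0-5 growth inhibition grade; 5 = over 90%; 4 = 70-90%; 3 = 50-70%; 2 = 30-50%; 1 = 10-30%; 0 = under 10%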; settings: dose 100 g active ingredient per 10 ares, examined on the 21st day after treatment
Outline: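 Pre-emergence test: barnyard grass and green foxtail sown in upland soil, then soil surface sprayed with wettable-powder formulation at 100 g active ingredient per 10 ares (100 l per 10 ares). Grown in greenhouse; herbicidal effect scored on a rating scale 21 days after treatment.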

[2] = system: barnyard grass (Ec); assay: Test Example 3: herbicidal effects by foliage treatment in upland field; set-up: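 0-5 growth inhibition grade; 5 = over 90%; 4 = 70-90%; 3 = 50-70%; 2 = 30-50%; 1 = 10-30%; 0 = under 10%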; settings: dose 100 g active ingredient per 10 ares, examined on the 14th day after treatment
Procedure: In a 80 cm^2 plastic pot, upland soil was filled, and seeds of barnyard grass (Ec) and green foxtail (Se) were sown and cultured in a green house for 2 weeks. Then, a wettable powder prepared in accordance with Formulation Example 1 was diluted with water and applied to the entire foliage from above the plants by means of a small size spray at a rate of 100 l per 10 ares so that the dose of the active ingredient would be 100 g per 10 ares. Thereafter, cultivation was carried out in a green house, and on the 14th day after the treatment, the herbicidal effects were examined in accordance with the standards of Table 44.

[3] = system: barnyard grass (Eo); assay: Test Example 1: herbicidal effects by flooded paddy field treatment; set-up: herbicidal effects, Eo (barnyard grass):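 0-5 growth inhibition grade; 5 = over 90%; 4 = 70-90%; 3 = 50-70%; 2 = 30-50%; 1 = 10-30%; 0 = under 10%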; settings: for herbicidal effects, Eo (barnyard grass): dose 100 g active ingredient per 10 ares, examined on the 21st day after treatment, standards of Table 44;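 for Herbicidal effect index, Eo: 0-5 growth inhibition grade; 5 = over 90%; 4 = 70-90%; 3 = 50-70%; 2 = 30-50%; 1 = 10-30%; 0 = under 10%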
Outline: (§1)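 Seeds sown in puddled paddy soil and flooded to 3 cm. Next day, a water-diluted wettable powder was dripped onto the water surface at 100 g active ingredient per 10 ares. Plants were grown in a greenhouse, and herbicidal effect was scored against a rating standard 21 days after treatment.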

[4] = system: monochoria (Mo); assay: as above; set-up: herbicidal effects, Mo (monochoria):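 0-5 growth inhibition grade; 5 = over 90%; 4 = 70-90%; 3 = 50-70%; 2 = 30-50%; 1 = 10-30%; 0 = under 10%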; settings: for herbicidal effects, Mo (monochoria): dose 100 g active ingredient per 10 ares, examined on the 21st day after treatment, standards of Table 44
Outline: as §1

[5] = system: barnyard grass (Eo); assay: Test Example 4: selectivity for a crop plant by flooded paddy field treatment; set-up: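 0-5 growth inhibition grade; 5 = over 90%; 4 = 70-90%; 3 = 50-70%; 2 = 30-50%; 1 = 10-30%; 0 = under 10%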; settings: barnyard grass, dose 25 gai/10a, 21st day after treatment, index per Table 44
Outline: (§2)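 Paddled paddy soil in pots sown with barnyard grass and monochoria, with second-leaf-stage rice transplanted, under 3 cm of water. Next day a diluted wettable powder was dripped onto the water at 25 g active ingredient per 10 ares; effects scored on a rating scale 21 days later in a greenhouse.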

[6] = system: monochoria (Mo); assay: as above; set-up: scale not given here; settings: monochoria, dose 25 gai/10a, 21st day after treatment, index per Table 44
Outline: as §2

[7] = system: rice (Or); assay: as above; set-up: scale not given here; settings: rice transplanted at second leaf stage, dose 25 gai/10a, 21st day after treatment, index per Table 44
Outline: as §2

[8] = dose 100 gai/10a, examined on 21st day after treatment, index 0-5 per Table 44
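Throughout, for Herbicidal effect index, Mo: 0-5 growth inhibition grade; 5 = over 90%; 4 = 70-90%; 3 = 50-70%; 2 = 30-50%; 1 = 10-30%; 0 = under 10%.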

## CC(C(=O)N(C)C(c1cncnc1C#N)C(C)C)c1ccc(Cl)cc1 (mixture of isomers) [1-508]
[1]
  Ec (herbicidal effects, index): 5
[2]
  Ec (herbicidal effects, index): 4

## COCC(c1cncnc1C(C)C)N(C)C(=O)C(C)c1ccc(Cl)cc1 (mixture of isomers) [1-586]
[3]
  herbicidal effects, Eo (barnyard grass): 5
[4]
  herbicidal effects, Mo (monochoria): 5
[1]
  Ec (herbicidal effects, index): 5
[2]
  Ec (herbicidal effects, index): 5

## CCC(C)C(c1cncnc1C(F)(F)F)N(C)C(=O)Cc1cccs1 (mixture of isomers) [2-11]
[3]
  herbicidal effects, Eo (barnyard grass): 5
[4]
  herbicidal effects, Mo (monochoria): 5
[1]
  Ec (herbicidal effects, index): 5
[2]
  Ec (herbicidal effects, index): 5

## CCC(C)C(c1cncnc1C(F)(F)F)N(C)C(=O)Cc1ccsc1 (mixture of isomers) [2-12]
[3]
  herbicidal effects, Eo (barnyard grass): 5
[4]
  herbicidal effects, Mo (monochoria): 5
[1]
  Ec (herbicidal effects, index): 5
[2]
  Ec (herbicidal effects, index): 5

## Cc1ccc(C(C)C(=O)N(C)C(c2cncnc2C(F)(F)F)C(C)C)s1 (mixture of isomers) [2-60]
[3]
  herbicidal effects, Eo (barnyard grass): 5
[4]
  herbicidal effects, Mo (monochoria): 5
[1]
  Ec (herbicidal effects, index): 5
[2]
  Ec (herbicidal effects, index): 4

## CC(C(=O)N(C)C(c1cncnc1C(F)(F)F)C(C)C)c1ccc(Br)s1 (mixture of isomers) [2-61]
[3]
  herbicidal effects, Eo (barnyard grass): 5
[4]
  herbicidal effects, Mo (monochoria): 5
[1]
  Ec (herbicidal effects, index): 5
[2]
  Ec (herbicidal effects, index): 4

## CC(C(=O)N(C)C(c1cncnc1C(F)(F)F)C(C)C)c1cccs1 (mixture of isomers) [2-62]
[3]
  herbicidal effects, Eo (barnyard grass): 5
[4]
  herbicidal effects, Mo (monochoria): 5
[1]
  Ec (herbicidal effects, index): 5
[2]
  Ec (herbicidal effects, index): 4

## CCC(C)C(c1cncnc1C(F)(F)F)N(C)C(=O)Cc1cccc(F)c1 (mixture of isomers) [Compound 1-267]
[3]
  herbicidal effects, Eo (barnyard grass): 5
[4]
  herbicidal effects, Mo (monochoria): 5
[1]
  Ec (herbicidal effects, index): 5
[2]
  Ec (herbicidal effects, index): 4

## CC(C)CC(c1cncnc1C(F)(F)F)N(C)C(=O)Cc1ccccc1 (racemic) [1-330]
[3]
  herbicidal effects, Eo (barnyard grass): 5
[4]
  herbicidal effects, Mo (monochoria): 5
[1]
  Ec (herbicidal effects, index): 5
[2]
  Ec (herbicidal effects, index): 4

## CC(C)CC(c1cncnc1C(F)(F)F)N(C)C(=O)Cc1ccc(F)cc1 (racemic) [1-331]
[3]
  herbicidal effects, Eo (barnyard grass): 5
[4]
  herbicidal effects, Mo (monochoria): 5
[1]
  Ec (herbicidal effects, index): 5
[2]
  Ec (herbicidal effects, index): 4

## COc1ncncc1C(C(C)C)N(C)C(=O)Cc1ccc(F)cc1 (racemic) [1-402]
[3]
  herbicidal effects, Eo (barnyard grass): 5
[4]
  herbicidal effects, Mo (monochoria): 5
[1]
  Ec (herbicidal effects, index): 5
[2]
  Ec (herbicidal effects, index): 5

## COc1ncncc1C(C(C)C)N(C)C(=O)Cc1ccc(Cl)cc1 (racemic) [1-403]
[3]
  herbicidal effects, Eo (barnyard grass): 5
[4]
  herbicidal effects, Mo (monochoria): 5
[1]
  Ec (herbicidal effects, index): 5
[2]
  Ec (herbicidal effects, index): 4

## CON(C(=O)Cc1ccc(Cl)cc1)C(c1cncnc1C(F)(F)F)C(C)C (racemic) [1-407]
[3]
  herbicidal effects, Eo (barnyard grass): 5
[4]
  herbicidal effects, Mo (monochoria): 5
[1]
  Ec (herbicidal effects, index): 5
[2]
  Ec (herbicidal effects, index): 4

## CN(C(=O)Cc1ccc(F)cc1)C(c1cncnc1C(F)(F)F)C1(C)CC1 (racemic) [1-410]
[3]
  herbicidal effects, Eo (barnyard grass): 5
[4]
  herbicidal effects, Mo (monochoria): 5
[1]
  Ec (herbicidal effects, index): 5
[2]
  Ec (herbicidal effects, index): 4

## CN(C(=O)Cc1ccc(Cl)cc1)C(c1cncnc1C(F)(F)F)C1(C)CC1 (racemic) [1-411]
[3]
  herbicidal effects, Eo (barnyard grass): 5
[4]
  herbicidal effects, Mo (monochoria): 5
[1]
  Ec (herbicidal effects, index): 5
[2]
  Ec (herbicidal effects, index): 4

## CC(C)C(c1cncnc1C(F)(F)F)N(C)C(=O)N(C)c1ccc(F)cc1 (racemic) [1-426]
[3]
  herbicidal effects, Eo (barnyard grass): 5
[4]
  herbicidal effects, Mo (monochoria): 5
[1]
  Ec (herbicidal effects, index): 5
[2]
  Ec (herbicidal effects, index): 4

## CC(C)C(c1cncnc1C(F)(F)F)N(C)C(=O)N(C)c1ccc(Cl)cc1 (racemic) [1-427]
[3]
  herbicidal effects, Eo (barnyard grass): 5
[4]
  herbicidal effects, Mo (monochoria): 5
[1]
  Ec (herbicidal effects, index): 5
[2]
  Ec (herbicidal effects, index): 4

## Cc1ccc(N(C)C(=O)N(C)C(c2cncnc2C(F)(F)F)C(C)C)cc1 (racemic) [1-428]
[3]
  herbicidal effects, Eo (barnyard grass): 5
[4]
  herbicidal effects, Mo (monochoria): 5
[1]
  Ec (herbicidal effects, index): 5
[2]
  Ec (herbicidal effects, index): 4

## CC(C)c1ncncc1C(C(C)C)N(C)C(=O)N(C)c1ccc(Cl)cc1 (racemic) [1-430]
[3]
  herbicidal effects, Eo (barnyard grass): 5
[4]
  herbicidal effects, Mo (monochoria): 5
[1]
  Ec (herbicidal effects, index): 5
[2]
  Ec (herbicidal effects, index): 4

## Cc1ccc(N(C)C(=O)N(C)C(c2cncnc2C(C)C)C(C)C)cc1 (racemic) [1-431]
[3]
  herbicidal effects, Eo (barnyard grass): 5
[4]
  herbicidal effects, Mo (monochoria): 5
[1]
  Ec (herbicidal effects, index): 5
[2]
  Ec (herbicidal effects, index): 4

## CCc1ncncc1C(C(C)C)N(C)C(=O)Cc1ccccc1 (racemic) [1-432]
[3]
  herbicidal effects, Eo (barnyard grass): 5
[4]
  herbicidal effects, Mo (monochoria): 5
[1]
  Ec (herbicidal effects, index): 5
[2]
  Ec (herbicidal effects, index): 5

## CCc1ncncc1C(C(C)C)N(C)C(=O)Cc1ccc(Cl)cc1 (racemic) [1-434]
[3]
  herbicidal effects, Eo (barnyard grass): 5
[4]
  herbicidal effects, Mo (monochoria): 5
[1]
  Ec (herbicidal effects, index): 5
[2]
  Ec (herbicidal effects, index): 4

## CCc1ncncc1C(C(C)C)N(C)C(=O)Cc1ccc(C)cc1 (racemic) [1-435]
[3]
  herbicidal effects, Eo (barnyard grass): 5
[4]
  herbicidal effects, Mo (monochoria): 5
[1]
  Ec (herbicidal effects, index): 5
[2]
  Ec (herbicidal effects, index): 4

## CCC(c1cncnc1C(C)C)N(C)C(=O)Cc1ccc(F)cc1 (racemic) [1-437]
[3]
  herbicidal effects, Eo (barnyard grass): 5
[4]
  herbicidal effects, Mo (monochoria): 5
[1]
  Ec (herbicidal effects, index): 5
[2]
  Ec (herbicidal effects, index): 4

## CCCc1ncncc1C(C(C)C)N(C)C(=O)Cc1ccccc1 (racemic) [1-445]
[3]
  herbicidal effects, Eo (barnyard grass): 5
[4]
  herbicidal effects, Mo (monochoria): 5
[1]
  Ec (herbicidal effects, index): 5
[2]
  Ec (herbicidal effects, index): 5

## CCCc1ncncc1C(C(C)C)N(C)C(=O)Cc1ccc(F)cc1 (racemic) [1-446]
[3]
  herbicidal effects, Eo (barnyard grass): 5
[4]
  herbicidal effects, Mo (monochoria): 5
[1]
  Ec (herbicidal effects, index): 5
[2]
  Ec (herbicidal effects, index): 5

## CCCc1ncncc1C(C(C)C)N(C)C(=O)Cc1ccc(Cl)cc1 (racemic) [1-447]
[3]
  herbicidal effects, Eo (barnyard grass): 5
[4]
  herbicidal effects, Mo (monochoria): 5
[1]
  Ec (herbicidal effects, index): 5
[2]
  Ec (herbicidal effects, index): 5

## C#CCN(C(=O)Cc1ccc(F)cc1)C(c1cncnc1CCC)C(C)C (racemic) [1-617]
[1]
  Ec (herbicidal effects, index): 5
[2]
  Ec (herbicidal effects, index): 4

## C#CCN(C(=O)Cc1ccc(C)cc1)C(c1cncnc1CCC)C(C)C (racemic) [1-619]
[1]
  Ec (herbicidal effects, index): 5
[2]
  Ec (herbicidal effects, index): 4

## C#CCN(C(=O)Cc1ccc(F)cc1)C(c1cncnc1C(C)C)C(C)C (racemic) [1-622]
[1]
  Ec (herbicidal effects, index): 4
[2]
  Ec (herbicidal effects, index): 4

## CCc1ncncc1C(C(C)C)N(C)C(=O)Oc1ccc(Cl)cc1 (racemic) [1-642]
[1]
  Ec (herbicidal effects, index): 4
[2]
  Ec (herbicidal effects, index): 4

## CCOc1ncncc1C(C(C)C)N(C)C(=O)Cc1ccc(Cl)cc1 (racemic) [1-661]
[2]
  Ec (herbicidal effects, index): 5

## C#CCN(C(=O)Cc1ccsc1)C(c1cncnc1C(C)C)C(C)C (racemic) [2-79]
[1]
  Ec (herbicidal effects, index): 5
[2]
  Ec (herbicidal effects, index): 4

## O=C(Cc1ccccc1)NC(c1cncnc1C(F)(F)Cl)C1CC1 (racemic) [Compound 1-1]
[2]
  Ec (herbicidal effects, index): 4

## CCCC(c1cncnc1C(F)(F)F)N(C)C(=O)Cc1ccccc1 (racemic) [Compound 1-111]
[3]; [8]
  Herbicidal effect index, Eo: 5
[4]; [8]
  Herbicidal effect index, Mo: 4
[2]
  Ec (herbicidal effects, index): 4

## CC(C)c1ncncc1C(C(C)C)N(C)C(=O)Cc1ccc(F)cc1 (racemic) [Compound 1-129]
[3]
  herbicidal effects, Eo (barnyard grass): 5
[4]
  herbicidal effects, Mo (monochoria): 5
[2]
  Ec (herbicidal effects, index): 5

## CN(C(=O)Cc1ccc(Cl)cc1F)C(c1ccccc1)c1cncnc1C(F)(F)F (racemic) [Compound 1-250]
[3]
  herbicidal effects, Eo (barnyard grass): 5
[4]
  herbicidal effects, Mo (monochoria): 5
[1]
  Ec (herbicidal effects, index): 4
[5]
  Eo (herbicidal effect index): 5
[6]
  Mo (herbicidal effect index): 5
[7]
  Or (herbicidal effect index on crop): 1
